The target of one data set is T1, PfHGXPRT (Plasmodium falciparum, UniProt P20035).
T1 sequence (P20035 1-231): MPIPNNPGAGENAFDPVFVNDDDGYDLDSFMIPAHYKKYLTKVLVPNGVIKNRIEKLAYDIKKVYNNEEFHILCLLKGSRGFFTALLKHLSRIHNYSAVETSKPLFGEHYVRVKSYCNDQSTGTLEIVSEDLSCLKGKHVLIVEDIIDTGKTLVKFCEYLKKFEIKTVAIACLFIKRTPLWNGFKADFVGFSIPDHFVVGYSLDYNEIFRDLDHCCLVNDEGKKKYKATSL
The data set is described as follows: PfHGXPRT steady-state kinetics. In kind it is biochemical.

Substrate in data set [1]: O=c1[nH]cnc2nc[nH]c12
The data set is described as follows: purified protein, by the assay type. The settings on record: other: unactivated enzyme; pH 7.4.

Where two headings read alike, the source gives them in different places.

Regarding `O=P(O)(O)OC[C@H]1O[C@H](OP(=O)(O)OP(=O)(O)O)[C@H](O)[C@@H]1O` [PRPP, 5-phospho-α-D-ribosyl 1-pyrophosphate], the Km at PfHGXPRT (read-out: Km, activated PfHGXPRT, substrate-activated enzyme) worked out at 185 ± 14 µM; at PfHGXPRT (read-out: Km, unactivated PfHGXPRT, unactivated enzyme) it was 55 ± 11 µM.

B1: PfHGXPRT (Plasmodium falciparum FCR-3/Gambia) (protein)
chain: T1 sequence (P20035 1-231)
Consider B1, for which the Km in data set [1] was 2.7 ± 0.3 µM.

The record behind these values is publication PMC9772100 (ACS chemical biology, 2022).
